Assay results from ChEMBL document CHEMBL1201862, “PubChem BioAssay data set” (2004).
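A five-concentration, 48-hour dose response in 96-well plates underlies each endpoint, interpolated linearly between surrounding concentrations. GI50: concentration for 50% inhibition of growth.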 The source made the active and inactive calls. Cut-off read from the data, not from the text of the source: active = GI50 up to about 1.1 µM and inactive = higher.

What was measured:
Assay in all cases: DTP human tumour cell line panel, 48 h
A549 = system: A549
COLO 205 = system: COLO 205
Hs-578T = system: Hs-578T
M14 = system: M14
MDA-MB-231 = system: MDA-MB-231
MDA-N = system: MDA-N
Malme-3M = system: Malme-3M
OVCAR-4 = system: OVCAR-4
OVCAR-8 = system: OVCAR-8
RXF 393 = system: RXF 393
SK-MEL-28 = system: SK-MEL-28
SK-OV-3 = system: SK-OV-3
SN12C = system: SN12C
SNB-19 = system: SNB-19
TK-10 = system: TK-10
UACC-62 = system: UACC-62
HCC 2998 = system: HCC 2998
SR = system: SR
HL-60 = system: HL-60
K562 = system: K562

Measured: GI50

COCO[C@@H]1C[C@H]2C(=O)Nc3ccccc3C(=O)N2C1
inactive: A549 > 100 µM | COLO 205 29.3 µM | Hs-578T 58.6 µM | M14 > 100 µM | MDA-MB-231 > 100 µM | MDA-N 39.2 µM | Malme-3M 40.3 µM | OVCAR-4 > 100 µM | OVCAR-8 > 100 µM | RXF 393 20.6 µM | SK-MEL-28 > 100 µM | SK-OV-3 > 100 µM | SN12C 88.1 µM | SNB-19 77.4 µM | TK-10 71.4 µM | UACC-62 > 100 µM

O=C(NNC(=O)c1csc(NC(=S)NC2CCCCC2)n1)c1ccccc1
inactive: A549 15.1 µM | COLO 205 5.25 µM | HCC 2998 13.9 µM | M14 13.5 µM | MDA-MB-231 13.5 µM | MDA-N 13.9 µM | Malme-3M 15.5 µM | OVCAR-4 3.34 µM | OVCAR-8 6.52 µM | SK-OV-3 12.1 µM | SN12C 5.97 µM | SR 2.26 µM | TK-10 22 µM | UACC-62 10.2 µM

CC(=O)N/N=C1\NC(=O)C[C@H]2[C@@H]3CC=C4C[C@@H](OC(C)=O)CC[C@]4(C)[C@H]3CC[C@]12C
inactive: A549 34.2 µM | COLO 205 45.3 µM | HL-60 > 100 µM | Hs-578T 17.8 µM | K562 > 100 µM | M14 30.8 µM | MDA-MB-231 18.7 µM | MDA-N 7.16 µM | Malme-3M 39.1 µM | OVCAR-4 11.2 µM | OVCAR-8 25.1 µM | SK-MEL-28 13.4 µM | SK-OV-3 21.1 µM | SN12C 29.6 µM | SNB-19 17.4 µM | TK-10 17.1 µM | UACC-62 16.8 µM

CCCn1c(=O)c2nn3c(=O)n(CCC)c(=O)c3nn2c1=O
inactive: A549 > 100 µM | COLO 205 > 100 µM | HCC 2998 > 100 µM | HL-60 > 100 µM | Hs-578T > 100 µM | K562 > 100 µM | M14 > 100 µM | MDA-N > 100 µM | Malme-3M > 100 µM | OVCAR-4 > 100 µM | OVCAR-8 > 100 µM | RXF 393 > 100 µM | SK-MEL-28 > 100 µM | SK-OV-3 > 100 µM | SN12C > 100 µM | SNB-19 > 100 µM | SR > 100 µM | TK-10 > 100 µM | UACC-62 > 100 µM

CN(C)S(=O)(=O)/N=C/c1cccc(/C=N/S(=O)(=O)N(C)C)c1
inactive: A549 > 100 µM | COLO 205 65.9 µM | HCC 2998 > 100 µM | HL-60 > 100 µM | K562 52.4 µM | M14 > 100 µM | MDA-MB-231 > 100 µM | MDA-N 31 µM | OVCAR-4 > 100 µM | OVCAR-8 51.3 µM | SK-MEL-28 > 100 µM | SK-OV-3 > 100 µM | SN12C > 100 µM | SNB-19 > 100 µM | TK-10 > 100 µM | UACC-62 > 100 µM

O=C(O)CN1CCN2CCCCCCCCN(CC1)CCN(CC(=O)O)CC2
inactive: A549 > 100 µM | COLO 205 > 100 µM | HL-60 5.08 µM | Hs-578T > 100 µM | K562 > 100 µM | M14 > 100 µM | MDA-MB-231 > 100 µM | MDA-N > 100 µM | Malme-3M > 100 µM | OVCAR-4 > 100 µM | OVCAR-8 > 100 µM | SK-MEL-28 > 100 µM | SK-OV-3 > 100 µM | SN12C > 100 µM | SNB-19 > 100 µM | TK-10 > 100 µM | UACC-62 > 100 µM

COc1cc(COC(=O)N[C@H](C(=O)O)C(C)(C)C)c([N+](=O)[O-])cc1OC
inactive: A549 > 100 µM | COLO 205 > 100 µM | HCC 2998 > 100 µM | HL-60 > 10 µM | Hs-578T > 100 µM | K562 > 100 µM | M14 > 100 µM | MDA-N > 100 µM | Malme-3M > 100 µM | OVCAR-8 > 100 µM | RXF 393 > 100 µM | SK-MEL-28 > 100 µM | SK-OV-3 > 100 µM | SN12C > 100 µM | SNB-19 > 100 µM | SR > 100 µM | TK-10 > 100 µM | UACC-62 > 100 µM

CCOC(=O)c1cc(=O)c2cccc3c2n1CCS3
inactive: A549 > 100 µM | COLO 205 > 100 µM | HL-60 > 100 µM | Hs-578T > 100 µM | M14 > 100 µM | MDA-MB-231 > 100 µM | MDA-N > 100 µM | OVCAR-8 > 100 µM | SK-MEL-28 > 100 µM | SK-OV-3 > 100 µM | SN12C > 100 µM | SNB-19 > 100 µM | TK-10 > 100 µM | UACC-62 > 100 µM
